In PubChem BioAssay AID330 (DTP/NCI, 2004):
Values joined by “and” are separate entries in the source; they are usually repeats but may differ in a detail not shown here. Equal entries are not always repeated. Inconclusive results and toxic doses are left out.

Test system: P388 leukemia ip, CD2F1 mice, survival T/C
Test: NCI In Vivo Anticancer Drug Screen. Data for tumor model P388 Leukemia (intraperitoneal) in CD2F1 (CDF1) mice
Details: endpoint: median survival time, higher = longer survival
Procedure, shortened: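 Mice carrying the transplanted tumor received test compound or vehicle. Survival was recorded in each group, and the value is the treated-group measurement divided by that of the vehicle-treated control group.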

[1] = dose: 100.0 mg/kg/injection, schedule: Q01DX001 (ip), vehicle: saline with Tween-80
[2] = dose: 200.0 mg/kg/injection, schedule: Q01DX001 (ip), vehicle: saline with Tween-80
[3] = dose: 400.0 mg/kg/injection, schedule: Q01DX001 (ip), vehicle: saline with Tween-80
[4] = dose: 60.0 mg/kg/injection, schedule: Q01DX005 (ip), vehicle: saline
[5] = dose: 120.0 mg/kg/injection, schedule: Q01DX005 (ip), vehicle: saline
[6] = dose: 240.0 mg/kg/injection, schedule: Q01DX005 (ip), vehicle: saline
[7] = dose: 25.0 mg/kg/injection, schedule: Q01DX005 (ip), vehicle: Klucel (hydroxypropylcellulose) (HPC)
[8] = dose: 50.0 mg/kg/injection, schedule: Q01DX005 (ip), vehicle: Klucel (hydroxypropylcellulose) (HPC)
[9] = dose: 100.0 mg/kg/injection, schedule: Q01DX005 (ip), vehicle: Klucel (hydroxypropylcellulose) (HPC)
[10] = dose: 200.0 mg/kg/injection, schedule: Q01DX005 (ip), vehicle: Klucel (hydroxypropylcellulose) (HPC)
[11] = dose: 50.0 mg/kg/injection, schedule: Q01DX009 (ip), vehicle: saline with Tween-80
[12] = dose: 200.0 mg/kg/injection, schedule: Q01DX009 (ip), vehicle: saline with Tween-80
[13] = dose: 60.0 mg/kg/injection, schedule: Q01DX005 (ip), vehicle: saline with Tween-80
[14] = dose: 120.0 mg/kg/injection, schedule: Q01DX005 (ip), vehicle: saline with Tween-80
[15] = dose: 240.0 mg/kg/injection, schedule: Q01DX005 (ip), vehicle: saline with Tween-80
[16] = dose: 50.0 mg/kg/injection, schedule: Q01DX009 (ip), vehicle: saline
[17] = dose: 100.0 mg/kg/injection, schedule: Q01DX009 (ip), vehicle: saline
[18] = dose: 200.0 mg/kg/injection, schedule: Q01DX009 (ip), vehicle: saline
[19] = dose: 50.0 mg/kg/injection, schedule: Q01DX009 (ip), vehicle: Klucel (hydroxypropylcellulose) (HPC)
[20] = dose: 100.0 mg/kg/injection, schedule: Q01DX009 (ip), vehicle: Klucel (hydroxypropylcellulose) (HPC)
[21] = dose: 50.0 mg/kg/injection, schedule: Q01DX005 (ip), vehicle: saline with Tween-80
[22] = dose: 100.0 mg/kg/injection, schedule: Q01DX005 (ip), vehicle: saline with Tween-80
[23] = dose: 200.0 mg/kg/injection, schedule: Q01DX005 (ip), vehicle: saline with Tween-80

With `O=c1[nH]c(=O)n(C2OC(CO)C(O)C2O)cc1CC(F)(F)C(F)(F)F` (stereo unspecified) the T/C (dose: 50.0 mg/kg/injection, schedule: Q01DX001 (ip), vehicle: saline with Tween-80) was 107 % of control, the T/C [1] was 106 % of control and the T/C [2] was 100 % of control. For the same compound, the T/C [3] was 101 % of control.

`COc1cccc2c1C(=O)c1c(O)c3c(c(O)c1C2=O)C[C@@](O)(C(=O)COS(=O)(=O)c1ccc(C)cc1)C[C@@H]3OC1CC(N)C(O)C(C)O1` (stereo partly specified) was tested, and the T/C (dose: 0.78 mg/kg/injection, schedule: Q01DX009 (ip), vehicle: water) was 164 % of control, the T/C (dose: 1.56 mg/kg/injection, schedule: Q01DX009 (ip), vehicle: water) was 161 % of control and the T/C (dose: 3.13 mg/kg/injection, schedule: Q01DX009 (ip), vehicle: water) was 158 % of control and 161 % of control. For the same compound, the T/C (dose: 6.25 mg/kg/injection, schedule: Q01DX009 (ip), vehicle: water) was 155 % of control and 180 % of control and the T/C (dose: 12.5 mg/kg/injection, schedule: Q01DX009 (ip), vehicle: water) was 89 % of control.

`O=C(COc1ccc(Cl)cc1)OCCN1CCCCCC1` was tested, and the T/C [4] was 109 % of control, the T/C [5] was 110 % of control and the T/C [6] was 100 % of control.

In the case of `CCOC(=O)c1cnc2c(ccc3cc(OC)ccc32)c1NCCCN(CC)CC`, the T/C [7] is reported as 97 % of control, the T/C [8] is reported as 97 % of control and the T/C [9] is reported as 100 % of control. The T/C [10] was 97 % of control.

With `c1ccc(N=C(Nc2ccccc2)C(=Nc2ccccc2)Nc2ccccc2)cc1` the T/C [8] was 100 % of control, the T/C [9] was 96 % of control and the T/C [10] was 98 % of control.

In the case of `OCC1OC(OC2C(CO)OC(S)C(O)C2O)C(O)C(O)C1O` (stereo unspecified), the T/C [11] is reported as 98 % of control, the T/C (dose: 100.0 mg/kg/injection, schedule: Q01DX009 (ip), vehicle: saline with Tween-80) is reported as 92 % of control and the T/C [12] is reported as 92 % of control.

With `O=C(/C=C/c1ccc([N+](=O)[O-])cc1)Cc1ccccc1` the T/C (dose: 100.0 mg/kg/injection, schedule: Q04DX002 (ip), vehicle: saline) was 97 % of control, the T/C (dose: 200.0 mg/kg/injection, schedule: Q04DX002 (ip), vehicle: saline) was 104 % of control and the T/C (dose: 400.0 mg/kg/injection, schedule: Q04DX002 (ip), vehicle: saline) was 100 % of control.

In the case of `COc1cc([C@@H]2c3cc(O)c(OC)cc3C[C@H]3C(=O)OC[C@@H]23)ccc1O`, the T/C [8] is reported as 96 % of control, the T/C [9] is reported as 96 % of control and the T/C [10] is reported as 100 % of control.

With `CC(C)C1=C(O)C2=C(C(=O)C1=O)C1(C)CCCC(C)(C)C1CC2O` (stereo unspecified) the T/C (dose: 25.0 mg/kg/injection, schedule: Q01DX009 (ip), vehicle: saline with Tween-80) was 100 % of control, the T/C [11] was 104 % of control and the T/C [12] was 108 % of control.

In the case of `CCOC(=O)C(C(=O)c1ccccc1)C(C)(C)C` (stereo unspecified), the T/C (dose: 37.5 mg/kg/injection, schedule: Q01DX009 (ip), vehicle: saline with Tween-80) is reported as 103 % of control, the T/C (dose: 75.0 mg/kg/injection, schedule: Q01DX009 (ip), vehicle: saline with Tween-80) is reported as 105 % of control and the T/C (dose: 150.0 mg/kg/injection, schedule: Q01DX009 (ip), vehicle: saline with Tween-80) is reported as 112 % of control.

`Cc1nc(N)c(C#N)c(-c2ccccc2)c1-c1ccccc1` was tested, and the T/C [1] was 92 % of control, the T/C [2] was 90 % of control and the T/C [3] was 106 % of control.

With `O=[N+]([O-])c1cc(I)c(O)c(/C=N/NS(=O)(=O)c2ccc(F)cc2)c1` the T/C [13] was 104 % of control, the T/C [14] was 105 % of control and the T/C [15] was 101 % of control.

In the case of `C1=CCN(c2nc(N3CCOCC3)nc(N3CCCc4ccccc43)n2)CC1`, the T/C [16] is reported as 99 % of control, the T/C [17] is reported as 97 % of control and the T/C [18] is reported as 99 % of control.

With `CC1=NN(c2cccc(C(F)(F)F)c2)C(=O)C1` the T/C (dose: 25.0 mg/kg/injection, schedule: Q01DX009 (ip), vehicle: Klucel (hydroxypropylcellulose) (HPC)) was 100 % of control, the T/C [19] was 106 % of control and the T/C [20] was 102 % of control.

In the case of `CN(/N=C/c1ccc2c(c1)OCO2)c1ccc([N+](=O)[O-])cc1`, the T/C [8] is reported as 89 % of control and the T/C [9] is reported as 89 % of control.

`COCC(=O)c1ccc(Cl)cc1` was tested, and the T/C [16] was 105 % of control, the T/C [17] was 110 % of control and 96 % of control and the T/C [18] was 105 % of control and 107 % of control.

In the case of `CCCCCC(CN(C)C)C(=O)/C=C/c1ccc(Cl)c(Cl)c1` (stereo unspecified), the T/C (dose: 1.56 mg/kg/injection, schedule: Q01DX009 (ip), vehicle: saline) is reported as 100 % of control, the T/C (dose: 3.12 mg/kg/injection, schedule: Q01DX009 (ip), vehicle: saline) is reported as 100 % of control and the T/C (dose: 6.25 mg/kg/injection, schedule: Q01DX009 (ip), vehicle: saline) is reported as 102 % of control. The T/C (dose: 12.5 mg/kg/injection, schedule: Q01DX009 (ip), vehicle: saline) was 109 % of control and the T/C (dose: 25.0 mg/kg/injection, schedule: Q01DX009 (ip), vehicle: saline) was 92 % of control.

For `O=C1c2ccccc2CCCC12OC2c1ccncc1` (stereo unspecified), the T/C [19] was 90 % of control, the T/C [20] was 96 % of control and the T/C (dose: 200.0 mg/kg/injection, schedule: Q01DX009 (ip), vehicle: Klucel (hydroxypropylcellulose) (HPC)) was 90 % of control.

`CSC(SC)(C(=O)O)c1cc(C)no1` was tested, and the T/C [13] was 107 % of control, the T/C [14] was 102 % of control and the T/C [15] was 102 % of control.

In the case of `CCCCCC/C=N/N1C(=O)C2C3C=CC(O3)C2C1=O` (stereo unspecified), the T/C [21] is reported as 103 % of control, the T/C [22] is reported as 108 % of control and the T/C [23] is reported as 95 % of control.

`COc1ccc2c(c1)OC(=O)C(S(=O)(=O)c1ccccc1)C2` (stereo unspecified) was tested, and the T/C [21] was 102 % of control, the T/C [22] was 96 % of control and the T/C [23] was 101 % of control.

`CC(NC(=O)C(CCCCN)N(C(=O)OCc1ccccc1)C(=O)OCc1ccccc1)C(=O)O` (stereo unspecified) (tested in a mixture with another compound) was tested, and the T/C (dose: 50.0 mg/kg/injection, schedule: Q01DX005 (ip), vehicle: suspension in saline) was 111 % of control, the T/C (dose: 100.0 mg/kg/injection, schedule: Q01DX005 (ip), vehicle: suspension in saline) was 111 % of control and the T/C (dose: 200.0 mg/kg/injection, schedule: Q01DX005 (ip), vehicle: suspension in saline) was 110 % of control.

`CCCOC1(C)CC(c2cc(OC)c(OC)c(OC)c2)c2cc3c(cc2O1)OCO3` (stereo unspecified) was tested, and the T/C (dose: 60.0 mg/kg/injection, schedule: Q01DX005 (ip), vehicle: Klucel (hydroxypropylcellulose) (HPC)) was 93 % of control, the T/C (dose: 120.0 mg/kg/injection, schedule: Q01DX005 (ip), vehicle: Klucel (hydroxypropylcellulose) (HPC)) was 91 % of control and the T/C (dose: 240.0 mg/kg/injection, schedule: Q01DX005 (ip), vehicle: Klucel (hydroxypropylcellulose) (HPC)) was 91 % of control.

In the case of `COC(=O)/C(C#N)=C/c1ccco1`, the T/C [8] is reported as 98 % of control and the T/C [9] is reported as 98 % of control.

With `CC1CC2=C(C(=O)c3ccccc3C2=O)C(C)O1` (stereo unspecified) the T/C [4] was 106 % of control, the T/C [5] was 92 % of control and the T/C [6] was 96 % of control.

`CC1(C)CC2C1(O)CCC1(C)C(O)C=CC21CO` (stereo unspecified) was tested, and the T/C (dose: 6.0 mg/kg/injection, schedule: Q01DX005 (ip), vehicle: Klucel (hydroxypropylcellulose) (HPC)) was 98 % of control, the T/C (dose: 12.0 mg/kg/injection, schedule: Q01DX005 (ip), vehicle: Klucel (hydroxypropylcellulose) (HPC)) was 95 % of control and the T/C (dose: 24.0 mg/kg/injection, schedule: Q01DX005 (ip), vehicle: Klucel (hydroxypropylcellulose) (HPC)) was 100 % of control. The T/C [7] was 93 % of control, the T/C (dose: 48.0 mg/kg/injection, schedule: Q01DX005 (ip), vehicle: Klucel (hydroxypropylcellulose) (HPC)) was 90 % of control and the T/C [8] was 93 % of control. The T/C [9] was 90 % of control.

In the case of `CCC(/C=C/C1OC(=O)C=CC1C)=C\C(C)C/C=C/C(C)=C/C(C)C(=O)C(C)C(O)C(C)C/C(C)=C/C(=O)O` (stereo unspecified), the T/C (dose: 12.5 micrograms/kg/injection, schedule: Q01DX005 (ip), vehicle: saline + alcohol) is reported as 118 % of control and the T/C (dose: 100.0 micrograms/kg/injection, schedule: Q01DX005 (ip), vehicle: saline + alcohol) is reported as 92 % of control.

For `O=c1c(-c2cccc(O)c2O)coc2cc(OC3OC(CO)C(O)C(O)C3O)ccc12` (stereo unspecified), the T/C [13] was 100 % of control, the T/C [14] was 100 % of control and the T/C [15] was 97 % of control.
